PMC10698194 (Nature Communications, 2023)
Bridge positions count the residues as written; N and C are the ends. Square brackets hold non-standard residues; d marks the D form. Peptide text beside a SMILES is read from it. * marks the point of attachment. X1 = C=CCN1CC[C@]23c4c5ccc(O)c4O[C@H]2[C@H](N*)CC[C@@]3(O)[C@H]1C5

Target: T1, human KOR Y320A (Homo sapiens, UniProt P41145, Y320A)
T1 construct: FLAG; expressed in transfected cells; host or cells: HEK293 / HEK293T, transient
Assay: BRET β-arrestin-2 biosensor assay
Type: cell-based

T1 sequence (P41145 whole entry Y320A): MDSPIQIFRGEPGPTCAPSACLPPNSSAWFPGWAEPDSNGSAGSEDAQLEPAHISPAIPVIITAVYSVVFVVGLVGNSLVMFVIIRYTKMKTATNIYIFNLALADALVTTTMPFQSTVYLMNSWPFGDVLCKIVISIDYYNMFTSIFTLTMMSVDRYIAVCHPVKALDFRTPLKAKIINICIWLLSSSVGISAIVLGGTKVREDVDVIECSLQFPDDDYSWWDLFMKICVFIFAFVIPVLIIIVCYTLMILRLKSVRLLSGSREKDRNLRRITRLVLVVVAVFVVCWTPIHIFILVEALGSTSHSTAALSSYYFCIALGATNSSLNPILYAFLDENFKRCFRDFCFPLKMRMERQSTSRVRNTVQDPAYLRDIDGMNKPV

SMILES: C=CCN1CC[C@]23c4c5ccc(O)c4O[C@H]2[C@H](NC(=O)[C@@H](Cc2ccccc2)NC(=O)[C@@H](NC(=O)[C@@H]2CSCC(=O)N[C@@H](Cc4ccc(O)cc4)C(=O)N[C@@H](C)C(=O)N[C@H](Cc4ccc(O)cc4)C(=O)N[C@@H]([C@@H](C)O)C(=O)N[C@@H]([C@@H](C)O)C(=O)N2)[C@@H](C)O)CC[C@@]3(O)[C@H]1C5 [DNCP-β-NalA(1)] ({CH2CO}-YA[dY]TTCT[dF]-X1; thioether N-6)
- Emax: 83.5 ± 4.81%
